Earlier results, collected in patent US11766390B2, “Method for dyeing keratinous material, comprising the use of an organosilicon compound, a colored effect pigment and a film-forming polymer II” (Henkel AG & Co. KGaA, priority 2019, dated 2023).

Settings: for solubility in water: 25° C.

CCN(Cc1cccc(S(=O)(=O)[O-])c1)c1ccc(C(=C2C=CC(=[N+](CC)Cc3cccc(S(=O)(=O)[O-])c3)C=C2)c2ccccc2S(=O)(=O)[O-])cc1.[Na+].[Na+] [Acid Blue 9]
solubility in water: more than 20 % by weight

O=S(=O)([O-])c1ccc(N=Nc2c(O)ccc3ccccc23)cc1.[Na+] [Acid Orange 7, sodium salt of 4-[(2-hydroxy-1-naphthyl)azo]benzene sulphonate]
solubility in water: more than 7 g/L

Nc1cc(S(=O)(=O)[O-])cc2cc(S(=O)(=O)[O-])c(N=Nc3ccccc3)c(O)c12.[Na+].[Na+] [Acid Red 33, disodium salt of 5-amino-4-hydroxy-3-(phenylazo)-naphthalene-2,7-disulphonate]
solubility in water: 2500 µg/mL

O=C([O-])c1c(Cl)c(Cl)c(Cl)c(Cl)c1-c1c2c(Br)cc(=O)c(Br)c-2oc2c(Br)c(O)cc(Br)c12.O=C([O-])c1c(Cl)c(Cl)c(Cl)c(Cl)c1-c1c2c(Br)cc(=O)c(Br)c-2oc2c(Br)c(O)cc(Br)c12.[Na+].[Na+] [Acid Red 92, disodium salt of 3,4,5,6-tetrachloro-2-(1,4,5,8-tetrabromo-6-hydroxy-3-oxoxanthen-9-yl)benzoic acid]
solubility in water: greater than 10 g/L

O=C([O-])C1=NN(c2ccc(S(=O)(=O)[O-])cc2)C(=O)C1N=Nc1ccc(S(=O)(=O)[O-])cc1.[Na+].[Na+].[Na+] (centres unmarked) [Acid Yellow 23, trisodium salt of 4,5-dihydro-5-oxo-1-(4-sulfophenyl)-4-((4-sulfophenyl)azo)-1H-pyrazole-3-carboxylic acid]
solubility in water (in words) (at 25° C.): highly soluble
